In PubChem BioAssay (NCI):
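Compound exposure: 48 hours, 5 concentrations, 96-well plates. GI50: concentration for 50% inhibition of growth. Definition used: TGI = concentration required for complete inhibition of growth.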

Key:
Experiment in all cases: NCI-60 cell line screen, 48 h
786-0 renal = tested on: 786-0 renal
A498 renal = tested on: A498 renal
A549 NSCLC = tested on: A549 NSCLC
ACHN renal = tested on: ACHN renal
BT-549 breast = tested on: BT-549 breast
CAKI-1 renal = tested on: CAKI-1 renal
CCRF-CEM leukemia = tested on: CCRF-CEM leukemia
COLO 205 colon = tested on: COLO 205 colon
DU-145 prostate = tested on: DU-145 prostate
EKVX NSCLC = tested on: EKVX NSCLC
HCC-2998 colon = tested on: HCC-2998 colon
HCT-116 colon = tested on: HCT-116 colon
HCT-15 colon = tested on: HCT-15 colon
HL-60(TB) leukemia = tested on: HL-60(TB) leukemia
HOP-62 NSCLC = tested on: HOP-62 NSCLC
HS 578T breast = tested on: HS 578T breast
HT29 colon = tested on: HT29 colon
IGROV1 ovarian = tested on: IGROV1 ovarian
K-562 leukemia = tested on: K-562 leukemia
KM12 colon = tested on: KM12 colon
LOX IMVI melanoma = tested on: LOX IMVI melanoma
M14 melanoma = tested on: M14 melanoma
MALME-3M melanoma = tested on: MALME-3M melanoma
MCF7 breast = tested on: MCF7 breast
MDA-MB-231 breast = tested on: MDA-MB-231 breast
MDA-MB-435 = tested on: MDA-MB-435
MOLT-4 leukemia = tested on: MOLT-4 leukemia
NCI-H226 lung = tested on: NCI-H226 lung
NCI-H23 lung = tested on: NCI-H23 lung
NCI-H460 lung = tested on: NCI-H460 lung
NCI-H522 lung = tested on: NCI-H522 lung
NCI/ADR-RES ovarian = tested on: NCI/ADR-RES ovarian
OVCAR-3 ovarian = tested on: OVCAR-3 ovarian
OVCAR-4 ovarian = tested on: OVCAR-4 ovarian
OVCAR-5 ovarian = tested on: OVCAR-5 ovarian
OVCAR-8 ovarian = tested on: OVCAR-8 ovarian
PC-3 prostate = tested on: PC-3 prostate
RPMI-8226 leukemia = tested on: RPMI-8226 leukemia
RXF 393 renal = tested on: RXF 393 renal
SF-268 CNS = tested on: SF-268 CNS
SF-295 CNS = tested on: SF-295 CNS
SF-539 CNS = tested on: SF-539 CNS
SK-MEL-2 melanoma = tested on: SK-MEL-2 melanoma
SK-MEL-28 melanoma = tested on: SK-MEL-28 melanoma
SK-MEL-5 melanoma = tested on: SK-MEL-5 melanoma
SK-OV-3 ovarian = tested on: SK-OV-3 ovarian
SN12C renal = tested on: SN12C renal
SNB-19 CNS = tested on: SNB-19 CNS
SNB-75 CNS = tested on: SNB-75 CNS
SR leukemia = tested on: SR leukemia
SW-620 colon = tested on: SW-620 colon
T-47D breast = tested on: T-47D breast
TK-10 renal = tested on: TK-10 renal
U251 CNS = tested on: U251 CNS
UACC-257 melanoma = tested on: UACC-257 melanoma
UACC-62 melanoma = tested on: UACC-62 melanoma
UO-31 renal = tested on: UO-31 renal

O=C1c2ccccc2S(=O)(=O)N1CSC(=S)N1CCOCC1
GI50 (786-0 renal): > 100 µM
TGI (786-0 renal): > 100 µM
GI50 (A498 renal): > 100 µM
TGI (A498 renal): > 100 µM
GI50 (A549 NSCLC): > 100 µM
TGI (A549 NSCLC): > 100 µM
GI50 (ACHN renal): > 100 µM
TGI (ACHN renal): > 100 µM
GI50 (BT-549 breast): > 100 µM
TGI (BT-549 breast): > 100 µM
GI50 (CAKI-1 renal): > 100 µM
TGI (CAKI-1 renal): > 100 µM
GI50 (CCRF-CEM leukemia): 7.9 µM
TGI (CCRF-CEM leukemia): 36.1 µM
GI50 (COLO 205 colon): 62.4 µM
TGI (COLO 205 colon): > 100 µM
GI50 (DU-145 prostate): > 100 µM
TGI (DU-145 prostate): > 100 µM
GI50 (EKVX NSCLC): > 100 µM
TGI (EKVX NSCLC): > 100 µM
GI50 (HCC-2998 colon): > 100 µM
TGI (HCC-2998 colon): > 100 µM
GI50 (HCT-116 colon): > 100 µM
TGI (HCT-116 colon): > 100 µM
GI50 (HCT-15 colon): > 100 µM
TGI (HCT-15 colon): > 100 µM
GI50 (HL-60(TB) leukemia): 4.84 µM
TGI (HL-60(TB) leukemia): 49.9 µM
GI50 (HOP-62 NSCLC): > 100 µM
TGI (HOP-62 NSCLC): > 100 µM
GI50 (HS 578T breast): > 100 µM
TGI (HS 578T breast): > 100 µM
GI50 (HT29 colon): 26.1 µM
TGI (HT29 colon): > 100 µM
GI50 (IGROV1 ovarian): > 100 µM
TGI (IGROV1 ovarian): > 100 µM
GI50 (K-562 leukemia): > 100 µM
TGI (K-562 leukemia): > 100 µM
GI50 (KM12 colon): > 100 µM
TGI (KM12 colon): > 100 µM
GI50 (LOX IMVI melanoma): > 100 µM
TGI (LOX IMVI melanoma): > 100 µM
GI50 (M14 melanoma): 31.1 µM
TGI (M14 melanoma): 89.6 µM
GI50 (MALME-3M melanoma): > 100 µM
TGI (MALME-3M melanoma): > 100 µM
GI50 (MCF7 breast): 49 µM
TGI (MCF7 breast): > 100 µM
GI50 (MDA-MB-231 breast): > 100 µM
TGI (MDA-MB-231 breast): > 100 µM
GI50 (MDA-MB-435): > 100 µM
TGI (MDA-MB-435): > 100 µM
GI50 (MOLT-4 leukemia): 19 µM
TGI (MOLT-4 leukemia): > 100 µM
GI50 (NCI-H226 lung): > 100 µM
TGI (NCI-H226 lung): > 100 µM
GI50 (NCI-H23 lung): > 100 µM
TGI (NCI-H23 lung): > 100 µM
GI50 (NCI-H460 lung): 70.1 µM
TGI (NCI-H460 lung): > 100 µM
GI50 (NCI-H522 lung): 24.8 µM
TGI (NCI-H522 lung): > 100 µM
GI50 (NCI/ADR-RES ovarian): > 100 µM
TGI (NCI/ADR-RES ovarian): > 100 µM
GI50 (OVCAR-3 ovarian): > 100 µM
TGI (OVCAR-3 ovarian): > 100 µM
GI50 (OVCAR-4 ovarian): > 100 µM
TGI (OVCAR-4 ovarian): > 100 µM
GI50 (OVCAR-5 ovarian): > 100 µM
TGI (OVCAR-5 ovarian): > 100 µM
GI50 (OVCAR-8 ovarian): > 100 µM
TGI (OVCAR-8 ovarian): > 100 µM
GI50 (PC-3 prostate): 38.3 µM
TGI (PC-3 prostate): > 100 µM
GI50 (RPMI-8226 leukemia): 15.8 µM
TGI (RPMI-8226 leukemia): 51.3 µM
GI50 (RXF 393 renal): > 100 µM
TGI (RXF 393 renal): > 100 µM
GI50 (SF-268 CNS): > 100 µM
TGI (SF-268 CNS): > 100 µM
GI50 (SF-295 CNS): > 100 µM
TGI (SF-295 CNS): > 100 µM
GI50 (SF-539 CNS): > 100 µM
TGI (SF-539 CNS): > 100 µM
GI50 (SK-MEL-2 melanoma): > 100 µM
TGI (SK-MEL-2 melanoma): > 100 µM
GI50 (SK-MEL-28 melanoma): 61.8 µM
TGI (SK-MEL-28 melanoma): > 100 µM
GI50 (SK-MEL-5 melanoma): 58.1 µM
TGI (SK-MEL-5 melanoma): > 100 µM
GI50 (SK-OV-3 ovarian): > 100 µM
TGI (SK-OV-3 ovarian): > 100 µM
GI50 (SN12C renal): > 100 µM
TGI (SN12C renal): > 100 µM
GI50 (SNB-19 CNS): > 100 µM
TGI (SNB-19 CNS): > 100 µM
GI50 (SNB-75 CNS): 65.4 µM
TGI (SNB-75 CNS): > 100 µM
GI50 (SR leukemia): 17.4 µM
TGI (SR leukemia): 47 µM
GI50 (SW-620 colon): 69.1 µM
TGI (SW-620 colon): > 100 µM
GI50 (T-47D breast): > 100 µM
TGI (T-47D breast): > 100 µM
GI50 (TK-10 renal): > 100 µM
TGI (TK-10 renal): > 100 µM
GI50 (U251 CNS): > 100 µM
TGI (U251 CNS): > 100 µM
GI50 (UACC-257 melanoma): > 100 µM
TGI (UACC-257 melanoma): > 100 µM
GI50 (UACC-62 melanoma): > 100 µM
TGI (UACC-62 melanoma): > 100 µM
GI50 (UO-31 renal): > 100 µM
TGI (UO-31 renal): > 100 µM
